# From the supplement of paper PMC10307832
# Key:
# Test in all cases: relative viability (nuclei count vs DMSO), 5 days (fraction); higher = more cells survive
# [1] = tested on: HCC-366
# Outline: (§1)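 Values are medians from duplicate plates. Each reflects relative viability, defined as the nuclei count of treated wells over that of vehicle wells. Lung cancer cell lines in 1536-well plates were pin-tool dosed one day after seeding with one drug alone or with a fixed anchor-drug dose plus five library-drug doses (not always all listed) in √10 steps, then fixed, stained and imaged at 4× after 5 days.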
# [2] = tested on: NCI-H1355
# Outline: as §1
# [3] = tested on: NCI-H2228
# Outline: as §1
# [4] = tested on: NCI-H1993
# Outline: as §1
# [5] = tested on: LOU-NH91
# Outline: as §1
# [6] = tested on: UMC-11
# Outline: as §1
# [7] = tested on: NCI-H1793
# Outline: as §1
# [8] = tested on: LCLC-103H
# Outline: as §1
# [9] = tested on: RERF-LC-KJ
# Outline: as §1
# [10] = tested on: NCI-H2170
# Outline: as §1
# [11] = tested on: EPLC-272H
# Outline: as §1
# [12] = tested on: SK-MES-1
# Outline: as §1
# [13] = tested on: HCC-827
# Outline: as §1
# [14] = tested on: NCI-H1755
# Outline: as §1
# [15] = tested on: HARA
# Outline: as §1
# [16] = tested on: NCI-H596
# Outline: as §1
# [17] = tested on: PC-3 [JPC-3]
# Outline: as §1
# [18] = tested on: NCI-H1975
# Outline: as §1
# [19] = tested on: NCI-H1651
# Outline: as §1
# [20] = tested on: NCI-H838
# Outline: as §1
# [21] = tested on: SW 1573
# Outline: as §1
# [22] = tested on: HCC-78
# Outline: as §1
# [23] = tested on: NCI-H520
# Outline: as §1
# [24] = tested on: COR-L 105
# Outline: as §1
smiles,measurement,setting,value
Nc1cccc2c1CN(C1CCC(=O)NC1=O)C2=O (configuration not stated) [Lenalidomide] + COc1cc2c(Oc3ccc(NC(=O)C4(C(=O)Nc5ccc(F)cc5)CC4)cc3F)ccnc2cc1OCCCN1CCOCC1 [Foretinib] (partner 0.25 µM),relative viability,[1]; first compound 0.253 µM,0.916
same,relative viability,[1]; first compound 0.8 µM,1.04
same,relative viability,[1]; first compound 2.53 µM,0.915
same,relative viability,[1]; first compound 8 µM,0.929
same,relative viability,[2]; first compound 0.253 µM,0.973
same,relative viability,[2]; first compound 2.53 µM,0.901
same,relative viability,[2]; first compound 8 µM,0.808
same,relative viability,[3]; first compound 0.253 µM,0.943
same,relative viability,[3]; first compound 0.8 µM,0.907
same,relative viability,[3]; first compound 2.53 µM,1.04
same,relative viability,[3]; first compound 8 µM,0.975
same,relative viability,[4]; first compound 0.253 µM,0.739
same,relative viability,[4]; first compound 0.8 µM,0.658
same,relative viability,[4]; first compound 2.53 µM,0.775
same,relative viability,[4]; first compound 8 µM,0.707
same,relative viability,[5]; first compound 0.253 µM,0.97
same,relative viability,[5]; first compound 0.8 µM,0.923
same,relative viability,[5]; first compound 2.53 µM,0.942
same,relative viability,[5]; first compound 8 µM,0.898
same,relative viability,[6]; first compound 0.253 µM,1.02
same,relative viability,[6]; first compound 0.8 µM,1.07
same,relative viability,[6]; first compound 2.53 µM,1.06
same,relative viability,[6]; first compound 8 µM,0.953
same,relative viability,[7]; first compound 0.253 µM,0.706
same,relative viability,[7]; first compound 2.53 µM,1.04
same,relative viability,[7]; first compound 8 µM,0.655
same,relative viability,[8]; first compound 0.253 µM,0.761
same,relative viability,[8]; first compound 0.8 µM,0.806
same,relative viability,[8]; first compound 2.53 µM,0.888
same,relative viability,[8]; first compound 8 µM,0.682
same,relative viability,[9]; first compound 0.253 µM,0.891
same,relative viability,[9]; first compound 0.8 µM,0.886
same,relative viability,[9]; first compound 2.53 µM,0.962
same,relative viability,[9]; first compound 8 µM,0.793
same,relative viability,[10]; first compound 0.253 µM,0.972
same,relative viability,[10]; first compound 0.8 µM,1
same,relative viability,[10]; first compound 2.53 µM,1.04
same,relative viability,[10]; first compound 8 µM,1.02
same,relative viability,[11]; first compound 0.253 µM,0.795
same,relative viability,[11]; first compound 0.8 µM,0.658
same,relative viability,[11]; first compound 2.53 µM,0.681
same,relative viability,[11]; first compound 8 µM,0.549
same,relative viability,[12]; first compound 0.253 µM,0.944
same,relative viability,[12]; first compound 0.8 µM,0.991
same,relative viability,[12]; first compound 2.53 µM,1.02
same,relative viability,[12]; first compound 8 µM,0.844
same,relative viability,[13]; first compound 0.253 µM,1.03
same,relative viability,[13]; first compound 0.8 µM,1.05
same,relative viability,[13]; first compound 2.53 µM,1.01
same,relative viability,[13]; first compound 8 µM,1.04
same,relative viability,[14]; first compound 0.253 µM,0.915
same,relative viability,[14]; first compound 0.8 µM,0.904
same,relative viability,[14]; first compound 2.53 µM,0.886
same,relative viability,[14]; first compound 8 µM,0.782
same,relative viability,[15]; first compound 0.253 µM,0.846
same,relative viability,[15]; first compound 2.53 µM,0.856
same,relative viability,[15]; first compound 8 µM,0.955
same,relative viability,[16]; first compound 0.253 µM,0.799
same,relative viability,[16]; first compound 2.53 µM,0.908
same,relative viability,[16]; first compound 8 µM,0.789
same,relative viability,[17]; first compound 0.253 µM,1.06
same,relative viability,[17]; first compound 0.8 µM,0.974
same,relative viability,[17]; first compound 2.53 µM,1.17
same,relative viability,[17]; first compound 8 µM,1.08
same,relative viability,[18]; first compound 0.253 µM,0.942
same,relative viability,[18]; first compound 0.8 µM,0.823
same,relative viability,[18]; first compound 2.53 µM,1.07
same,relative viability,[18]; first compound 8 µM,1.14
same,relative viability,[19]; first compound 0.253 µM,0.837
same,relative viability,[19]; first compound 0.8 µM,0.963
same,relative viability,[19]; first compound 2.53 µM,0.914
same,relative viability,[19]; first compound 8 µM,0.804
same,relative viability,[20]; first compound 0.253 µM,1.11
same,relative viability,[20]; first compound 0.8 µM,0.965
same,relative viability,[20]; first compound 2.53 µM,1.15
same,relative viability,[20]; first compound 8 µM,1.2
same,relative viability,[21]; first compound 0.253 µM,0.971
same,relative viability,[21]; first compound 0.8 µM,1.15
same,relative viability,[21]; first compound 2.53 µM,0.95
same,relative viability,[21]; first compound 8 µM,0.877
same,relative viability,[22]; first compound 0.253 µM,0.673
same,relative viability,[22]; first compound 0.8 µM,0.526
same,relative viability,[22]; first compound 2.53 µM,0.516
same,relative viability,[22]; first compound 8 µM,0.514
same,relative viability,[23]; first compound 0.253 µM,0.805
same,relative viability,[23]; first compound 0.8 µM,0.627
same,relative viability,[23]; first compound 2.53 µM,0.875
same,relative viability,[23]; first compound 8 µM,0.711
same,relative viability,[24]; first compound 0.253 µM,0.855
same,relative viability,[24]; first compound 0.8 µM,0.822
same,relative viability,[24]; first compound 2.53 µM,1.12
same,relative viability,[24]; first compound 8 µM,1.16
